Bridge positions count the residues as written; N and C are the ends. Square brackets hold non-standard residues; d marks the D form. Peptide text beside a SMILES is read from it. Phe(4-Cl) = N[C@@H](Cc1ccc(Cl)cc1)C(=O)O; 1Nal = N[C@@H](Cc1cccc2ccccc12)C(=O)O; His(π-Me) = Cn1cncc1C[C@H](N)C(=O)O; NMeY = CN[C@@H](Cc1ccc(O)cc1)C(=O)O; NMeF = CN[C@@H](Cc1ccccc1)C(=O)O; Abu = CC[C@H](N)C(=O)O; Aib = CC(C)(N)C(=O)O
Legend:
Type in all cases: cell-based
Settings in all cases: LB broth, 5×10^5 CFU/ml, 37° C., 18 hours, scored by eye
E. coli 25922 = assay: Minimum Inhibitory Concentration (MIC) determination, E. coli 25922; design: unit not given here
Method: (§1) MICs were determined by performing two-fold serial dilutions of peptides in LB broth to a final volume of 0.1 ml in round-bottom 96-well assay plates (Corning Life Sciences No 3788). Peptides were initially resuspended in 100% DMSO to 10 mM and subsequently diluted in LB medium to the appropriate concentration. Each well was inoculated with 5×10^5 CFU/ml of the screening stain and incubated at 37° C. without agitation for 18 hours. Plates were scored by eye, and the lowest compound concentration preventing visible growth was determined to be the MIC.

E. coli 25922 IMP = assay: Minimum Inhibitory Concentration (MIC) determination, E. coli 25922 IMP
Method: as §1

E. coli BW25113 = assay: Minimum Inhibitory Concentration (MIC) determination, E. coli BW25113; design: unit not given here
Method: as §1

SMILES	MIC E. coli 25922 WUXI::MIC (E. coli 25922)	MIC E. coli 25922 IMP WUXI::MIC (E. coli 25922 IMP)	MIC E. coli BW25113 WUXI::MIC (E. coli BW25113)
CC[C@@H]1NC(=O)[C@H](Cc2ccccc2)N(C)C(=O)CSC[C@@H](C(=O)NCC(N)=O)NC(=O)[C@H](Cc2cncn2C)NC(=O)[C@H](CCCNC(=N)N)NC(=O)[C@H](Cc2c[nH]cn2)NC(=O)[C@H](Cc2ccc(O)cc2)N(C)C(=O)[C@H](CCCNC(=N)N)NC(=O)[C@H](CO)NC(=O)CNC(=O)[C@H](Cc2c[nH]cn2)NC(=O)[C@H](Cc2cccc3ccccc23)NC1=O [Compound 23] ({CH2CO}-[NMeF][Abu][1Nal]HGSR[NMeY]HR[His(π-Me)]CG-NH2; thioether N-12)	25	0.016	–
CC[C@@H]1NC(=O)[C@H](Cc2ccccc2)N(C)C(=O)CSC[C@@H](C(=O)NCC(N)=O)NC(=O)[C@H](Cc2cncn2C)NC(=O)[C@H](CN)NC(=O)[C@H](Cc2c[nH]cn2)NC(=O)[C@H](Cc2ccc(O)cc2)N(C)C(=O)[C@H](CCCNC(=N)N)NC(=O)[C@H](CO)NC(=O)CNC(=O)[C@H](Cc2c[nH]cn2)NC(=O)[C@H](Cc2cccc3ccccc23)NC1=O (racemic) [Compound 48]	>100	–	–
CC[C@@H]1NC(=O)[C@H](Cc2ccccc2)NC(=O)CSC[C@@H](C(=O)NCC(N)=O)NC(=O)[C@H](Cc2cncn2C)NC(=O)[C@H](CCC(N)=O)NC(=O)[C@H](Cc2c[nH]cn2)NC(=O)[C@H](Cc2ccc(O)cc2)N(C)C(=O)[C@H](CCCNC(=N)N)NC(=O)[C@H](CO)NC(=O)CNC(=O)[C@H](Cc2c[nH]cn2)NC(=O)[C@H](Cc2cccc3ccccc23)NC1=O (racemic) [Compound 42]	100	–	–
CC[C@@H]1NC(=O)[C@H](Cc2ccccc2)N(C)C(=O)CSC[C@@H](C(=O)NCC(N)=O)NC(=O)[C@H](Cc2cncn2C)NC(=O)[C@H](CCC(N)=O)NC(=O)[C@H](Cc2c[nH]cn2)NC(=O)[C@H](Cc2ccc(O)cc2)N(C)C(=O)[C@H](CCCNC(=N)N)NC(=O)[C@H](CO)NC(=O)CNC(=O)[C@H](Cc2c[nH]cn2)NC(=O)[C@H](Cc2cccc3ccccc23)NC1=O (racemic) [Compound 45]	>100	–	–
CC[C@@H]1NC(=O)[C@H](Cc2ccccc2)N(C)C(=O)CSC[C@@H](C(=O)NCC(N)=O)NC(=O)[C@H](Cc2cncn2C)NC(=O)[C@H](CCN)NC(=O)[C@H](Cc2c[nH]cn2)NC(=O)[C@H](Cc2ccc(O)cc2)N(C)C(=O)[C@H](CCCNC(=N)N)NC(=O)[C@H](CO)NC(=O)CNC(=O)[C@H](Cc2c[nH]cn2)NC(=O)[C@H](Cc2cccc3ccccc23)NC1=O (racemic) [Compound 49]	50	–	–
CC[C@@H]1NC(=O)[C@H](Cc2ccccc2)NC(=O)CSC[C@@H](C(=O)NCC(N)=O)NC(=O)[C@H](Cc2cncn2C)NC(=O)[C@H](CN)NC(=O)[C@H](Cc2c[nH]cn2)NC(=O)[C@H](Cc2ccc(O)cc2)N(C)C(=O)[C@H](CCCNC(=N)N)NC(=O)[C@H](CO)NC(=O)CNC(=O)[C@H](Cc2c[nH]cn2)NC(=O)[C@H](Cc2cccc3ccccc23)NC1=O (racemic) [Compound 46]	100	–	–
CC[C@H](C)[C@@H]1NC(=O)[C@H]([C@@H](C)O)NC(=O)[C@H](Cc2cncn2C)NC(=O)[C@H](Cc2ccccc2)NC(=O)CSC[C@@H](C(=O)NCC(N)=O)NC(=O)[C@H](Cc2ccc(O)cc2)NC(=O)[C@H](Cc2ccc(Cl)cc2)NC(=O)[C@H](Cc2ccc(O)cc2)NC(=O)[C@H](CCCNC(=N)N)NC(=O)[C@H](Cc2ccccc2)NC(=O)C(C)(C)NC(=O)[C@H](CCCNC(=N)N)NC(=O)[C@H](CCCCN)NC(=O)[C@H](CCCNC(=N)N)NC1=O [Compound 58] ({CH2CO}-F[His(π-Me)]TIRKR[Aib]FRY[Phe(4-Cl)]YCG-NH2; thioether N-14)	–	0.25	2
CC(C)[C@@H]1NC(=O)[C@H](Cc2ccccc2)NC(=O)CSC[C@@H](C(=O)NCC(N)=O)NC(=O)[C@H](Cc2cncn2C)NC(=O)[C@H](CCCNC(=N)N)NC(=O)[C@H](Cc2cnc[nH]2)NC(=O)[C@H](Cc2ccccc2)N(C)C(=O)[C@H](CCCNC(=N)N)NC(=O)[C@H](CO)NC(=O)CNC(=O)[C@H](Cc2c[nH]cn2)NC(=O)[C@H](Cc2cccc3ccccc23)NC1=O [Compound 6, (3R,6S,9S,12S,15S,18S,21S,27S,30S, 33S,36S)-N-(2-amino-2-oxo-ethyl)-15,36-dibenzyl-9,18-bis(3-guanidinopropyl)-21-(hydroxymethyl)-12,27-bis(1H-imidazol-4-ylmethyl)-33-isopropyl-16-methyl-6-[(3-methylimidazol-4-yl)methyl]-30-(1-naphthylmethyl)-5,8,11,14,17,20,23,26,29,32,35,38-dodecaoxo-1-thia-4,7,10,13,16,19,22,25,28,31,34,37-dodecazacyclononatriacontane-3-carboxamide] ({CH2CO}-FV[1Nal]HGSR[NMeF]HR[His(π-Me)]CG-NH2; thioether N-12)	–	<0.000125	2
CC[C@@H]1NC(=O)[C@H](Cc2ccccc2)NC(=O)CSC[C@@H](C(=O)NCC(N)=O)NC(=O)[C@H](Cc2cncn2C)NC(=O)[C@H](CCCNC(=N)N)NC(=O)[C@H](Cc2cnc[nH]2)NC(=O)[C@H](Cc2ccccc2)N(C)C(=O)[C@H](CCCNC(=N)N)NC(=O)[C@H](CO)NC(=O)CNC(=O)[C@H](Cc2cnc[nH]2)NC(=O)[C@H](Cc2cccc3ccccc23)NC1=O (racemic) [Compound 10, rac-(3R,6S,9S,12S,15S,18S,21S,27S,30S,3 3S,36S)-N-(2-amino-2-oxo-ethyl)-15,36-dibenzyl-33-ethyl-9,18-bis(3-guanidinopropyl)-21-(hydroxymethyl)-12,27-bis(1H-imidazol-5-ylmethyl)-16-methyl-6-[(3-methylimidazol-4-yl)methyl]-30-(1-naphthylmethyl)-5,8,11,14,17,20,23,26,29,32,35,38-dodecaoxo-1-thia-4,7,10,13,16,19,22,25,28,31,34,37-dodecazacyclononatriacontane-3-carboxamide]	–	2.3842E−07	8
CC[C@H](C)[C@@H]1NC(=O)[C@H]([C@@H](C)O)NC(=O)[C@H](Cc2cncn2C)NC(=O)[C@H](Cc2ccccc2)NC(=O)CSC[C@@H](C(=O)NCC(N)=O)NC(=O)[C@H](Cc2ccc(O)cc2)NC(=O)[C@H](Cc2c[nH]c3ccccc23)NC(=O)[C@H](Cc2ccc(O)cc2)NC(=O)[C@H](Cc2cncn2C)NC(=O)[C@H](Cc2ccccc2)NC(=O)C(C)(C)NC(=O)[C@H](CCCNC(=N)N)NC(=O)[C@H](CCCNC(=N)N)NC(=O)[C@H](CCCNC(=N)N)NC1=O [Compound 53] ({CH2CO}-F[His(π-Me)]TIRRR[Aib]F[His(π-Me)]YWYCG-NH2; thioether N-14)	–	0.25	4
CC[C@H](C)[C@@H]1NC(=O)[C@H]([C@@H](C)O)NC(=O)[C@H](Cc2cncn2C)NC(=O)[C@H](Cc2ccccc2)NC(=O)CSC[C@@H](C(=O)NCC(N)=O)NC(=O)[C@H](Cc2ccccc2)NC(=O)[C@H](Cc2c[nH]c3ccccc23)NC(=O)[C@H](Cc2ccc(O)cc2)NC(=O)[C@H](Cc2cncn2C)NC(=O)[C@H](Cc2ccccc2)NC(=O)C(C)(C)NC(=O)[C@H](CCCNC(=N)N)NC(=O)[C@H](CCCCN)NC(=O)[C@H](CCCNC(=N)N)NC1=O [Compound 54, trifluoroacetic acid] ({CH2CO}-F[His(π-Me)]TIRKR[Aib]F[His(π-Me)]YWFCG-NH2; thioether N-14)	–	0.5	8
CC[C@@H]1NC(=O)[C@H](Cc2ccccc2)NC(=O)CSC[C@@H](C(=O)NCC(N)=O)NC(=O)[C@H](Cc2cncn2C)NC(=O)[C@H](CC)NC(=O)[C@H](Cc2c[nH]cn2)NC(=O)[C@H](Cc2ccc(O)cc2)N(C)C(=O)[C@H](CCCNC(=N)N)NC(=O)[C@H](CO)NC(=O)CNC(=O)[C@H](Cc2c[nH]cn2)NC(=O)[C@H](Cc2cccc3ccccc23)NC1=O (stereo in doubt) [Compound 41]	>100	–	–
CCC1NC(=O)C(Cc2c[nH]cn2)NC(=O)C(Cc2ccc(O)cc2)N(C)C(=O)C(CCCNC(=N)N)NC(=O)C(CO)NC(=O)CNC(=O)C(Cc2c[nH]cn2)NC(=O)C(Cc2cccc3ccccc23)NC(=O)C(CC)NC(=O)C(Cc2ccccc2)N(C)C(=O)CSCC(C(=O)NCC(N)=O)NC(=O)C(Cc2cncn2C)NC1=O (racemic) [Compound 44]	>100	–	–
CC[C@H](C)[C@@H]1NC(=O)[C@H]([C@@H](C)O)NC(=O)[C@H](Cc2cncn2C)NC(=O)[C@H](Cc2ccccc2)NC(=O)CSC[C@@H](C(=O)NCC(N)=O)NC(=O)[C@H](Cc2ccc(O)cc2)NC(=O)[C@H](Cc2c[nH]c3ccccc23)NC(=O)[C@H](Cc2ccc(O)cc2)NC(=O)[C@H](CCCNC(=N)N)NC(=O)[C@H](Cc2ccccc2)NC(=O)C(C)(C)NC(=O)[C@H](CCCNC(=N)N)NC(=O)[C@H](CCCCN)NC(=O)[C@H](CCCNC(=N)N)NC1=O [Compound 52] ({CH2CO}-F[His(π-Me)]TIRKR[Aib]FRYWYCG-NH2; thioether N-14)	–	0.125	1

From patent publication US20240279283A1, “CYCLIC PEPTIDE ANTIBIOTICS” (priority 2021, published 2024)
